Experimental data from ChEMBL document CHEMBL1201862, “PubChem BioAssay data set” (2004).
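Growth conditions: 96-well plates. Treatment: test compound, 48 hours, 5 concentrations. Analysis: linear interpolation between bracketing concentrations; unreached endpoints set to highest concentration. GI50 marks 50% less growth.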 The source made the active and inactive calls. No stated cut-off is given here; in the data, active = GI50 up to about 1.1 µM and inactive = higher.

Columns and labels:
Test in all cases: growth of human tumour cells (NCI), 48 h
[1] = tested on: SF-268
[2] = tested on: LOX IMVI
[3] = tested on: A549
[4] = tested on: SK-OV-3
[5] = tested on: SK-MEL-2
[6] = tested on: SW-620
[7] = tested on: NCI-H23
[8] = tested on: NCI/ADR-RES
[9] = tested on: HT-29
[10] = tested on: KM12
[11] = tested on: NCI-H522
[12] = tested on: HCT-15
[13] = tested on: TK-10
[14] = tested on: SF-539
[15] = tested on: MDA-N
[16] = tested on: HL-60
[17] = tested on: U-251
[18] = tested on: SR
[19] = tested on: NCI-H226
[20] = tested on: HCT-116

SMILES	GI50 [1]	GI50 [2]	GI50 [3]	GI50 [4]	GI50 [5]	GI50 [6]	GI50 [7]	GI50 [8]	GI50 [9]	GI50 [10]	GI50 [11]	GI50 [12] [µM]	GI50 [13]	GI50 [14]	GI50 [15]	GI50 [16]	GI50 [17]	GI50 [18]	GI50 [19]	GI50 [20]
Nc1ccc(-c2nc3ccccc3s2)cc1Br	61 µM (inactive)	> 80.9 µM (inactive)	> 100 µM (inactive)	> 71.4 µM (inactive)	> 100 µM (inactive)	> 100 µM (inactive)	63.7 µM (inactive)	> 100 µM (inactive)	> 100 µM (inactive)	> 92.9 µM (inactive)	> 100 µM (inactive)	62.8	0.0141 µM (active)	> 51.3 µM (inactive)	> 100 µM (inactive)	> 100 µM (inactive)	57.5 µM (inactive)	> 94.8 µM (inactive)	–	–
CCOc1cc(NC(C)=O)ccc1C(=O)NN1C(=O)C(Oc2ccccc2)C1c1ccc(O)c(OC)c1 (stereo not drawn)	–	29.8 µM (inactive)	56.5 µM (inactive)	> 100 µM (inactive)	26.9 µM (inactive)	77.4 µM (inactive)	30.8 µM (inactive)	37.4 µM (inactive)	36.7 µM (inactive)	39.1 µM (inactive)	–	32.8	40.8 µM (inactive)	28.1 µM (inactive)	33.6 µM (inactive)	19.8 µM (inactive)	48.9 µM (inactive)	25.8 µM (inactive)	34.2 µM (inactive)	52.4 µM (inactive)
Fc1nc(-c2c3ccccc3c3sc4ccccc4n23)nc(N2CCOCCOCCOCCOCC2)n1	> 100 µM (inactive)	> 100 µM (inactive)	> 100 µM (inactive)	71 µM (inactive)	–	> 100 µM (inactive)	> 100 µM (inactive)	56.8 µM (inactive)	46.6 µM (inactive)	> 100 µM (inactive)	> 100 µM (inactive)	> 100	54.2 µM (inactive)	21.6 µM (inactive)	> 100 µM (inactive)	–	44.8 µM (inactive)	11.2 µM (inactive)	> 100 µM (inactive)	62.4 µM (inactive)
O=c1c2cc3c(=O)n4c(cc(-c5ccccc5)c5cc(Cl)ccc54)nc3cc2nc2cc(-c3ccccc3)c3cc(Cl)ccc3n12	> 100 µM (inactive)	> 100 µM (inactive)	> 100 µM (inactive)	> 100 µM (inactive)	> 100 µM (inactive)	> 100 µM (inactive)	> 100 µM (inactive)	> 100 µM (inactive)	> 100 µM (inactive)	> 100 µM (inactive)	> 100 µM (inactive)	> 100	> 100 µM (inactive)	> 100 µM (inactive)	> 100 µM (inactive)	–	52.4 µM (inactive)	> 100 µM (inactive)	> 100 µM (inactive)	> 100 µM (inactive)
N#Cc1c(N)c(C#N)c2c(c1-c1ccc(Cl)cc1)COc1ccccc1-2	29.4 µM (inactive)	29.7 µM (inactive)	14.5 µM (inactive)	18.4 µM (inactive)	22 µM (inactive)	32.6 µM (inactive)	16.7 µM (inactive)	20.9 µM (inactive)	13.2 µM (inactive)	28.6 µM (inactive)	–	31.8	14.6 µM (inactive)	18.5 µM (inactive)	18.5 µM (inactive)	25.4 µM (inactive)	14.7 µM (inactive)	11.4 µM (inactive)	32.1 µM (inactive)	12.2 µM (inactive)
CC(=O)C(=NNc1ccc(-n2c(C)nc3ccc(Br)cc3c2=O)cc1)C(C)=O	56.4 µM (inactive)	> 100 µM (inactive)	> 100 µM (inactive)	> 100 µM (inactive)	> 100 µM (inactive)	> 100 µM (inactive)	70.8 µM (inactive)	54.1 µM (inactive)	> 100 µM (inactive)	> 100 µM (inactive)	–	> 100	56.9 µM (inactive)	47.3 µM (inactive)	> 100 µM (inactive)	> 100 µM (inactive)	58.2 µM (inactive)	> 100 µM (inactive)	72.9 µM (inactive)	88.3 µM (inactive)
CC(C)C(/C=C/c1ccc(Cl)c(Cl)c1)=N\NC(=O)N/N=C(/C=C/c1ccc(Cl)c(Cl)c1)C(C)C	> 100 µM (inactive)	> 100 µM (inactive)	–	> 100 µM (inactive)	–	> 100 µM (inactive)	> 100 µM (inactive)	> 100 µM (inactive)	> 100 µM (inactive)	> 100 µM (inactive)	> 100 µM (inactive)	> 100	> 100 µM (inactive)	> 100 µM (inactive)	> 100 µM (inactive)	80 µM (inactive)	> 100 µM (inactive)	86.1 µM (inactive)	> 100 µM (inactive)	–
N#CC(NNC(=O)c1c(Cl)c(Cl)c(Cl)c(Cl)c1-c1nc2cc(C(=O)c3ccccc3)ccc2[nH]1)c1cccc(Oc2ccccc2)c1 (stereo not drawn)	–	37.8 µM (inactive)	30.9 µM (inactive)	33.8 µM (inactive)	20.5 µM (inactive)	27.7 µM (inactive)	26.4 µM (inactive)	19 µM (inactive)	27.4 µM (inactive)	36.6 µM (inactive)	–	18.4	31.3 µM (inactive)	20.7 µM (inactive)	15.4 µM (inactive)	28.3 µM (inactive)	23.4 µM (inactive)	20.6 µM (inactive)	21.3 µM (inactive)	29.6 µM (inactive)
CCOC(=O)C1(C(=O)OCC)Nc2cccnc2N(C)N1	40.6 µM (inactive)	25.4 µM (inactive)	96.8 µM (inactive)	> 100 µM (inactive)	19.3 µM (inactive)	11.1 µM (inactive)	20.5 µM (inactive)	20 µM (inactive)	14.7 µM (inactive)	50.1 µM (inactive)	–	18	20.9 µM (inactive)	16.6 µM (inactive)	17.5 µM (inactive)	22.8 µM (inactive)	20.8 µM (inactive)	37.1 µM (inactive)	18.4 µM (inactive)	18.8 µM (inactive)
Cc1ccc(Nc2sc(C)cc2C#N)c([N+](=O)[O-])c1	> 100 µM (inactive)	–	> 100 µM (inactive)	> 100 µM (inactive)	–	> 100 µM (inactive)	> 100 µM (inactive)	98.9 µM (inactive)	–	93.5 µM (inactive)	> 100 µM (inactive)	67.3	–	> 100 µM (inactive)	> 100 µM (inactive)	–	> 100 µM (inactive)	> 100 µM (inactive)	> 100 µM (inactive)	> 100 µM (inactive)
COc1nc(SC)nc2c1C(O)n1c(nc3ccccc31)S2 (stereo not drawn)	18.4 µM (inactive)	34.6 µM (inactive)	28.6 µM (inactive)	22.8 µM (inactive)	28.9 µM (inactive)	9.14 µM (inactive)	19.5 µM (inactive)	10.5 µM (inactive)	35.9 µM (inactive)	25.4 µM (inactive)	23 µM (inactive)	33.5	23.7 µM (inactive)	–	40.4 µM (inactive)	12.3 µM (inactive)	10.6 µM (inactive)	3.58 µM (inactive)	–	11.5 µM (inactive)
CC(C)/C(Cl)=N\OC(=O)Nc1ccccc1F	21 µM (inactive)	2.55 µM (inactive)	18.7 µM (inactive)	19.2 µM (inactive)	18.1 µM (inactive)	1.88 µM (inactive)	17.7 µM (inactive)	15.2 µM (inactive)	24.3 µM (inactive)	20.8 µM (inactive)	–	16.2	14.5 µM (inactive)	17.3 µM (inactive)	16.6 µM (inactive)	1.68 µM (inactive)	17.3 µM (inactive)	2.25 µM (inactive)	15.1 µM (inactive)	8.45 µM (inactive)
S=C(Nc1ccc(Cl)cc1)c1ccc(CN2CCCCC2)s1	36.3 µM (inactive)	2.48 µM (inactive)	0.811 µM (active)	–	25.1 µM (inactive)	4.4 µM (inactive)	3.35 µM (inactive)	16.8 µM (inactive)	3.5 µM (inactive)	5.43 µM (inactive)	21.9 µM (inactive)	4.72	–	24.9 µM (inactive)	2.94 µM (inactive)	1.81 µM (inactive)	10.1 µM (inactive)	2.9 µM (inactive)	–	1.8 µM (inactive)
CC1(C)OCC2(CO1)CSCCCSCC1(COC(C)(C)OC1)CSCCCSC2	> 100 µM (inactive)	> 100 µM (inactive)	> 100 µM (inactive)	> 100 µM (inactive)	–	> 100 µM (inactive)	> 100 µM (inactive)	> 100 µM (inactive)	> 100 µM (inactive)	> 100 µM (inactive)	> 100 µM (inactive)	> 100	> 100 µM (inactive)	> 100 µM (inactive)	> 100 µM (inactive)	> 100 µM (inactive)	> 100 µM (inactive)	> 100 µM (inactive)	–	> 100 µM (inactive)
CCn1c(=O)ccc2ccc(N(CCO)CCO)nc21	> 100 µM (inactive)	–	> 100 µM (inactive)	> 100 µM (inactive)	> 100 µM (inactive)	> 100 µM (inactive)	> 100 µM (inactive)	> 100 µM (inactive)	> 100 µM (inactive)	> 100 µM (inactive)	> 100 µM (inactive)	> 100	> 100 µM (inactive)	–	> 100 µM (inactive)	–	> 100 µM (inactive)	> 100 µM (inactive)	> 100 µM (inactive)	> 100 µM (inactive)
CC(C)(C)c1ccc(-c2nc3ccccc3c(=O)o2)cc1	53.6 µM (inactive)	18.7 µM (inactive)	27.9 µM (inactive)	83.4 µM (inactive)	22.8 µM (inactive)	48.2 µM (inactive)	34.3 µM (inactive)	55.2 µM (inactive)	42 µM (inactive)	29.1 µM (inactive)	30.3 µM (inactive)	37.5	70.1 µM (inactive)	40.6 µM (inactive)	41.2 µM (inactive)	23.1 µM (inactive)	40.6 µM (inactive)	22.5 µM (inactive)	–	38.7 µM (inactive)
